In patent US9072293B2, “Cyclopropenes and method for applying cyclopropenes to agricultural products or crops” (Erum Biotechnologies Inc., priority 2010, dated 2015):
Several values for one entry are separate records, joined by “and”; a condition that tells them apart may be missing. Identical values can stand only once.

Tests used:
[1] = Relative chemical stability of cyclopropenes measured by 1H-NMR; type: physicochemical
How it was run: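 Compounds in CDCl3 NMR tubes stored at −20° C. or room temperature and followed by 1H-NMR. Integrals of characteristic 1-alkylcyclopropene peaks (4–6.5 ppm, 1H; 0.8–0.9 ppm, 2H) compared against 1,1,3,3-tetramethylurea internal standard (2.80 ppm); stability expressed relative to chain-length-1 analogue.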

tomato [2] = assay: Experimental Example 1: Efficacy test on tomato using emulsion (reddening grade); type: in vivo; settings: individual tomatoes n=4
Procedure: In situ, a 1.0 mM 1-octylcyclopropene formulation was prepared using (trans)-1-octyl-1-(methanesulfonyloxy)-2-(trimethylsilyl)cyclopropane of Preparation Example 10 in the same manner as in Example 7. This solution was diluted to 1 to 100 times prior to use, as necessary. Experimental Example 1: Efficacy test on tomato using emulsion 1.0 mM formulations of five agents such as 1-(2-phenylethyl)cyclopropene, 1-(3-phenylpropyl)cyclopropene, 1-(4-phenylbutyl)cyclopropene, 1-(5-phenylpentyl)cyclopropene and 1-hexylcyclopropene were prepared in the same manner as in Example 1, and 1.0 mM and 100 μM solutions were prepared therefrom. Then, the effects of the solutions were compared with non-treated groups and control groups in which a surfactant or a stabilizing agent (sodium dodecylbenzenesulfonate or tristyrenylphenykethoxy)12ethanol) is dissolved.
Tomatoes whose top end began to turn pink were screened, harvested and divided into 12 groups (n=4) in total, i.e., non-treated groups, control groups (surfactant) and agent groups with different concentrations such as 100 μM and 1.0 mM. Tomatoes were treated with the prepared agent formulation using a household sprayer such that the surface thereof was saturated. The tomatoes were stood at room temperature (25-30° C.) for 3 days and a reddening level thereof was evaluated based on grades of 0 to 5.
(§1) At this time, the tops of tomatoes most early turned red, while the bottoms thereof most lately turned red. For this reason, in order to accurately evaluate the difference in reddening, the coloring evaluated was based on the area of red color, rather than the color of tomatoes. […] Accordingly, the grade level is proportional to the rate at which the tomatoes ripened.

tomato [3] = assay: Experimental Example 2: Efficacy test on tomato using oil based formulation (reddening grade); type: in vivo; design: key: an area in which the surface of tomato was colored in pink was 10% or less; an area in which the surface of tomato was completely colored in red was 10 to 40%; 2: an area in which the surface of tomato was completely colored in red was 40 to 70%; 3: an area in which the surface of tomato was completely colored in red was 70% or more and the bottom area remained green; 4: an area in which the surface of tomato was most colored in red and only a part of (0 to 10%) the bottom area remained green; 5: the surface of tomato did not entirely color in green; settings: 1.0 mM oil-based formulation, individual tomatoes n=4
Text: as §1
As illustrated in Example 1, in situ, in accordance with the methods of Preparation Examples 15, 16, 17, 18 and 22, five agents (1.0 mmol) such as 1-(2-phenylethyl)cyclopropene, 1-(3-phenylpropyl)cyclopropene, 1-(4-phenylbutyl)cyclopropene, 1-(5-phenylpentyl)cyclopropene and 1-hexylcyclopropene were prepared, 5.0 ml of xylene and 5.0 ml of water were added to the reaction solution, vigorously stirred for 5 minutes and stood. When the mixture was separated into an organic layer (upper layer) and an aqueous layer (lower layer), only the organic layer was collected and the aqueous layer was discarded. […] of hexane was added to the organic layer and homogeneously mixed to prepare a 1.0 mM oil-based formulation.
The tomatoes were screened in the same manner as in Experimental Example 1 and divided into 7 groups (n=4) including a non-treated group, a control group (solvent-treated group) and 5 agent groups. Tomatoes were treated with the previously prepared agent using a household sprayer such that the surface thereof was saturated. The tomatoes were stood at room temperature (25-30° C.) for 3 days and a reddening level thereof was evaluated based on grades of 0 to 5.

- chemical stability (in words) [1]: considerably stable
- Stability (relative chemical stability, based on cyclopropenes having a chain length of 1) ([1]; 1H-NMR, CDCl3, stored at −20° C. or room temperature, relative to chain length 1): >10
SMILES: C1=C(CCc2ccccc2)C1 [(2-Phenylethyl), 1-(2-phenylethyl)cyclopropene]
- reddening level (grade 0 to 5) (tomato [2]; 100 μM, Day 0, room temperature (25-30° C.)): 0 (an area in which the surface of tomato was colored in pink was 10% or less) (2×) and 1 (an area in which the surface of tomato was completely colored in red was 10 to 40%) and 2 (an area in which the surface of tomato was completely colored in red was 40 to 70%)
- reddening level (grade 0 to 5) (tomato [2]; 100 μM, Day 1, room temperature (25-30° C.)): 1 (an area in which the surface of tomato was completely colored in red was 10 to 40%) (2×) and 3 (an area in which the surface of tomato was completely colored in red was 70% or more and the bottom area remained green) (2×)
- reddening level (grade 0 to 5) (tomato [2]; 100 μM, Day 2, room temperature (25-30° C.)): 2 (an area in which the surface of tomato was completely colored in red was 40 to 70%) and 3 (an area in which the surface of tomato was completely colored in red was 70% or more and the bottom area remained green) and 4 (2×)
- reddening level (grade 0 to 5) (tomato [2]; 100 μM, Day 3, room temperature (25-30° C.)): 3 (an area in which the surface of tomato was completely colored in red was 70% or more and the bottom area remained green) and 4 and 5 (2×)
- reddening level (grade 0 to 5) (tomato [2]; 1.0 mM, Day 0, room temperature (25-30° C.)): 0 (an area in which the surface of tomato was colored in pink was 10% or less) (2×) and 1 (an area in which the surface of tomato was completely colored in red was 10 to 40%) and 2 (an area in which the surface of tomato was completely colored in red was 40 to 70%)
- reddening level (grade 0 to 5) (tomato [2]; 1.0 mM, Day 1, room temperature (25-30° C.)): 1 (an area in which the surface of tomato was completely colored in red was 10 to 40%) (2×) and 2 (an area in which the surface of tomato was completely colored in red was 40 to 70%) and 3 (an area in which the surface of tomato was completely colored in red was 70% or more and the bottom area remained green)
- reddening level (grade 0 to 5) (tomato [2]; 1.0 mM, Day 2, room temperature (25-30° C.)): 2 (an area in which the surface of tomato was completely colored in red was 40 to 70%) (2×) and 3 (an area in which the surface of tomato was completely colored in red was 70% or more and the bottom area remained green) and 4
- reddening level (grade 0 to 5) (tomato [2]; 1.0 mM, Day 3, room temperature (25-30° C.)): 3 (an area in which the surface of tomato was completely colored in red was 70% or more and the bottom area remained green) (2×) and 4 and 5
- Tomato results: reddening level (grade 0 to 5) (tomato [3]; Day 0, room temperature (25-30° C.)): 0 (an area in which the surface of tomato was colored in pink was 10% or less) (2×) and 1 (an area in which the surface of tomato was completely colored in red was 10 to 40%) and 2 (an area in which the surface of tomato was completely colored in red was 40 to 70%)
- Tomato results: reddening level (grade 0 to 5) (tomato [3]; Day 1, room temperature (25-30° C.)): 1 (an area in which the surface of tomato was completely colored in red was 10 to 40%) (2×) and 2 (an area in which the surface of tomato was completely colored in red was 40 to 70%) and 3 (an area in which the surface of tomato was completely colored in red was 70% or more and the bottom area remained green)
- Tomato results: reddening level (grade 0 to 5) (tomato [3]; Day 2, room temperature (25-30° C.)): 2 (an area in which the surface of tomato was completely colored in red was 40 to 70%) (2×) and 4 (2×)
- Tomato results: reddening level (grade 0 to 5) (tomato [3]; Day 3, room temperature (25-30° C.)): 4 (2×) and 5 (2×)
